Measurements taken from patent US5792635A, “Method of inhibiting the sodium/proton exchanger NHE3 and method of inhibiting growth by administering squalamine” (priority 1995, dated 1998).
“Also recorded” adds a separate entry of the source.

Columns and labels:
[1] = test system: Human ovarian carcinoma SKOV3; assay: Cancer cells inhibited in vitro; assay type: cell-based
Procedure: (§1) As set forth in Table 7 below, all malignant tumors evaluated in tissue culture, endothelial cells and vascular smooth muscle cells were sensitive to inhibition. Thus, compound 1436 has application in the control of growth factor dependent proliferation of many types of tissue.
Using the assay described above, the anticancer effects of compound 1437 against several cancer lines was assessed.

[2] = Effect on fasting blood glucose in mice; assay type: in vivo, mouse (CD-1); conditions: intravenous; 1436 in D5W, 1437 in water
Procedure: To study the effect of steroid administrator or the NHE responsible for secretion of insulin, several of the aminosterols from shark liver were administered to fasting mice. Male CD-1 mice were assigned to one of four treatment groups. Whole blood glucose was tested using glucometer (Lifescan Glucometer II and One Touch test strips). Statistical analysis was via one-way analysis of variance (ANOVA) followed by subsequent Bonferonni's t-test.

Xenopus tadpoles [3] = assay: Tadpole assay; conditions: for observed response in tadpole: stage 59-60 Xenopus
[4] = test system: vitelline capillaries of 3- to 5-day chick embryo; assay: Chick embryo vitelline capillary regression assay; assay type: in vivo; conditions: for vitelline capillary regression, potency in words: chick embryo capillary bed
Procedure: Using the chick embryo vitelline capillaries assay, compounds were tested for their ability to induce capillary regression. Each compound was applied in 0.1 ml of 15% Ficol 400 and PBS onto the embryo, and vascular regression was assessed after 60 minutes.
The 3-day chick embryo consists of an embryonic disc from which numerous vessels emerge and return, forming a "figure 8"-shaped structure--the embryo in the center with vascular loops extending outward over both poles. […] Following a lag period of around 15 minutes, the constriction of continuity between capillary and secondary vessels, generally on the "venous" side, was observed. Continued pulsatile blood flow progressed, resulting in a "swelling" of the blind tube, followed by a pinching off of the remaining connection and formation of an enclosed vascular sac resembling a "blood island." This process progressed until only the largest vessels remained intact.

human T-cells = assay: Inhibition of PHA-stimulated human lymphocytes; assay type: cell-based; conditions: Homo sapiens, T-cell; 10 μg/ml; read-out: inhibition of blast transformation
Description: Results are tabulated below.

[5] = test system: Human colon carcinoma HT29; assay: Cancer cells inhibited in vitro; assay type: cell-based; conditions: 10 μg/ml
Description: as §1

[6] = test system: Human colon carcinoma SW948; assay: Cancer cells inhibited in vitro; assay type: cell-based; conditions: 10 μg/ml
Description: as §1

Human melanoma WM 1617 = assay: Cancer cells inhibited in vitro; assay type: cell-based; conditions: 10 μg/ml
Description: as §1

Lewis lung carcinoma = assay: Cancer cells inhibited in vitro; assay type: cell-based; conditions: 10 μg/ml
Description: as §1

Murine B16 melanoma = assay: Cancer cells inhibited in vitro; assay type: cell-based; conditions: 10 μg/ml
Description: as §1

Murine L1210 leukemia = assay: Cancer cells inhibited in vitro; assay type: cell-based; conditions: 10 μg/ml
Description: as §1

[7] = test system: Human coronary artery smooth muscle cells; assay: Non-transformed cells inhibited in vitro; assay type: cell-based; conditions: 10 μg/ml
Description: as §1

[8] = test system: Human microvascular endothelial cells; assay: Non-transformed cells inhibited in vitro; assay type: cell-based; conditions: 10 μg/ml
Description: as §1

[9] = test system: bovine pulmonary endothelial cells; assay: Non-transformed cells inhibited in vitro; assay type: cell-based; conditions: 10 μg/ml
Description: as §1

[10] = test system: human umbilical venous endothelial cells; assay: Non-transformed cells inhibited in vitro; assay type: cell-based; conditions: 10 μg/ml
Description: as §1

B16 melanoma = assay: Synergistic inhibition of tumor growth, B16 melanoma in mice; assay type: in vivo, mouse; conditions: squalamine 15 mg/kg/day; compound 1436 tolerable schedule
Procedure: Based on the idea that tumor growth involves both the clonal expansion of a malignant cell along with the development of a supporting vascular supply, a combination of compound 1436 with squalamine was tested to determine whether it would achieve a synergistic effect on solid tumor growth. This concept was evaluated in the B16 melanoma model.
Animals were implanted with B16 melanoma followed by treatment with compound 1436 or 1256 administered in a combined schedule or separately. […] Thus, a combination of these two compounds achieves a therapeutic benefit in tumors dependent on neovascularization that may prevent metastatic spread.

[11] = test system: human coronary artery smooth muscle; assay: Proliferation of human coronary artery smooth muscle in vitro; assay type: cell-based; conditions: FIG. 15
Description: Aminosterols of the invention may also have utility in inhibiting the growth factor mediated proliferation of smooth muscle within the artery. Following coronary angioplasty, reocclusion commonly occurs, secondary to reparative proliferation of the vascular smooth muscle within the wall of the surgically manipulated blood vessel. This process generally takes place over the course of 7-10 days. To evaluate whether an agent could prevent the growth factor mediated proliferation of smooth muscle within the artery, compound 1436 was evaluated in vitro for its effect on the proliferation of human coronary artery smooth muscle. Results for compound 1436 are shown in FIG. 13, and those for squalamine are shown in FIG. 14, with FIG. 15 being a composite logarithmic plot.

[12] = Effect on growth and weight gain of growing mice; assay type: in vivo, mouse (C57B)
Procedure: Animals were dosed QTD (i.p.) starting on Day 1. […] Animals receiving 5 mg/kg QTD experienced about a 50% reduction in growth, compared to untreated controls, while animals receiving 1 mg/kg QTD were affected by about 10%. […] They appeared very much like hypophysectamized animals might appear.

[13] = Effect on arterial resistance in the rat after i.v. administration; assay type: in vivo
Procedure: A 200-g rat was catheterized in the right carotid artery, and the compound was introduced over a ten-second period to a total dosage of 5 mg/kg. Within 30 seconds, the mean arterial pressure had fallen from about 100 mm Hg to about 70 mm Hg, with a marked reduction in pulse pressure from about 40 mm to about 10 mm. […] If cardiac output was basically unaffected, reduction in blood pressure would have resulted principally from a reduction in system resistance.
At that time, 40 μg of noradrenaline was introduced.

[14] = test system: L1210 lymphoblastic leukemia cells; assay: Mouse model of leukemia (L1210), survival and hematological profile; conditions: highest dose (10 mg/kg every 3 days i.p.); FIG. 11
Description: C57B mice were inoculated with L1210 lymphoblastic leukemia cells at an inoculum that causes leukemia in 100% of animals.

human melanoma = assay: Effect on growth of human melanoma, time course (FIG. 17); assay type: cell-based
LLC = LLC MTT assay (Table II); assay type: cell-based; conditions: Lewis lung carcinoma, read-out: Minimum Effective Concentration, LLC MTT
NHE5 = assay: NHE isoform selectivity inferred from tadpole and chick embryo assays
NHE = assay: Assay for direct inhibition of NHE; assay type: cell-based; conditions: relative to squalamine
Description: Moreover, other aminosterols have shown anti-angiogenic activity. Compounds were subjected to a various assays, including the chick embryo capillary regression assay, the tadpole assay, the assay for inhibition of endothelial cord formation, and the assay for direct inhibition of NHE, as described above, to determine their utilities. As evident from the above data, correlation among the results from the chick, tadpole and in vitro inhibition of endothelial cell cord formation assays is excellent.
Through the application of these assays, compound 319 emerged as an attractive alternative to squalamine. […] Further properties of compound 319 are discussed below.

Xenopus tadpoles [15] = conditions: in vivo
NHE1β = conditions: nucleated erythrocytes; cited from earlier work

Structure (SMILES): CC(C)C(CO)(CC[C@@H](C)[C@H]1CC[C@H]2[C@@H]3[C@H](O)C[C@H]4C[C@@H](NCCCNCCCCN)CC[C@]4(C)[C@H]3CC[C@]12C)OS(=O)(=O)O (single isomer, unassigned) [Compound 1437]
- anticancer activity ([1]; SKOV3): anticancer activity
- hyperglycemic response [2]: caused hyperglycemia in mice
- observed response in tadpole (Xenopus tadpoles [3]; 10 μg/ml): Epithelium covering the embryonic portions of the animal, such as the tail and antennae, began to slough off in sheets; also recorded: Animal was otherwise active, with little tissue breakdown noted; also recorded: the larval skin was observed to shed off in a sheet

Structure (SMILES): CC(C)[C@@H](CC[C@@H](C)[C@H]1CC[C@H]2[C@@H]3[C@H](O)C[C@H]4C[C@@H](NCCCNCCCCNCCCN)CC[C@]4(C)[C@H]3CC[C@]12C)OS(=O)(=O)O [Compound 1436]
- vitelline capillary regression, potency in words [4]: about the same potency as squalamine
- inhibition at 10 µg/mL (human T-cells): > 75%
- inhibited in vitro [5]: INHIBITED
- inhibited in vitro [6]: INHIBITED
- inhibited in vitro (Human melanoma WM 1617): INHIBITED
- inhibited in vitro (Lewis lung carcinoma): INHIBITED
- inhibited in vitro (Murine B16 melanoma): INHIBITED
- inhibited in vitro (Murine L1210 leukemia): INHIBITED
- inhibited in vitro ([1]; 10 μg/ml): INHIBITED
- inhibited in vitro [7]: INHIBITED
- inhibited in vitro [8]: INHIBITED
- inhibited in vitro [9]: INHIBITED
- inhibited in vitro [10]: INHIBITED
- effect of single agent versus combination (B16 melanoma): Neither administration of squalamine at 15 mg/kg/day nor compound 1436 alone in a tolerable schedule could achieve this effect
- hyperglycemic response [2]: caused hyperglycemia in mice
- suppression of growth of human coronary artery smooth muscle [11]: suppress in vitro the growth of human coronary artery smooth muscle
- growth inhibition of mice ([12]; 10 mg/kg QTD i.p., after 6 doses, about 1 month): almost completely inhibited
- apparent health ([12]; C57B mice, 1-10 mg/kg QTD i.p.): all were active, normally proportioned, not-cachectic, and in excellent apparent clinical health
- suppression of linear growth and weight gain ([12]; normal growing mice, i.p.): suppresses both linear growth and weight gain in growing mice in a dose-dependent fashion
- reversibility by noradrenaline ([13]; 40 μg noradrenaline at 30 minutes): readily reversible by standard pharmacological practice
- duration of blood pressure effect followed without significant change ([13]; 5 mg/kg i.v.): 30 min
- death / lethality time (Xenopus tadpoles [3]; 10 μg/ml): about 2 hours
- observed response in tadpole (Xenopus tadpoles [3]; 10 μg/ml): common vascular occlusive effect; also recorded: Gradual reduction in overall activity. Heart beat remained strong, suggesting nervous system depression; also recorded: Melanocytes over head and tail began to swell, first exhibiting visibly distinct nuclei, followed by rupture into fragments; also recorded: dramatic disruption of melanocytes over its head, trunk, and tail, along with depression of its nervous system; also recorded: No effects are observed on epithelial cell integrity, vascular flow, erythrocyte volume, tissue integrity, muscle fiber striation, or GI tract activity
- survival in L1210 leukemia mice [14]: significant prolongation of life

Structure (SMILES): CC(C)CCC[C@@H](C)[C@H]1CC[C@H]2[C@@H]3CC[C@H]4C[C@@H](NCCCNCCCCNCCCN)CC[C@]4(C)[C@H]3CC[C@]12C [Compound 353]
- vitelline capillary regression, potency in words [4]: no effect on the chick embryo capillary bed
- effect on melanoma growth, time dependence (human melanoma; FIG. 17A, less effect within first 12 hours): most pronounced over 48 hours
- mode of cell death (human melanoma; cells exposed to compound 353): apoptotic cell death has been induced
- minimal effective concentration (LLC): 1.9 µg/mL
- NHE5 versus NHE3 selectivity (NHE5): inhibits NHE5 to a greater extent than NHE3
- functional similarity in tadpole assay (Xenopus tadpoles [3]; Xenopus tadpole assay): effects like those produced by compound 1436

Structure (SMILES): C[C@H](CCC(=O)O)[C@H]1CC[C@H]2[C@@H]3CC[C@H]4C[C@@H](NCCCNCCCCN)CC[C@]4(C)[C@H]3CC[C@]12C [Compound 319]
- activity in vitelline capillary regression assay ([4]; Table 5): especially active
- potency as an NHE inhibitor (NHE): superior to squalamine
- CNS effects (Xenopus tadpoles [15]): no CNS effects
- observed response in tadpole (Xenopus tadpoles [3]; 10 μg/ml): common vascular occlusive effect

Structure (SMILES): N=C(N)NC(=O)c1nc(Cl)c(N)nc1N [Amiloride]
- inhibition of NHE1β (NHE1β): inhibited by high concentrations of amiloride
